Measurements as given in PMC10508264, “Exploring the antioxidant, antimicrobial, cytotoxic and biothermodynamic properties of novel morpholine derivative bioactive Mn(II), Co(II) and Ni(II) complexes – combined experimental and theoretical measurements towards DNA/BSA/SARS-CoV-2 3CL^Pro” (RSC Medicinal Chemistry, 2023).

How the values were obtained:
CT-DNA [1] = assay: DNA binding by UV-vis absorption titration; conditions: for % H (hypochromism): Tris-HCl pH 7.4, 25 °C; for Kb, BH-I (Benesi–Hildebrand method I) / Kb, BH-II (Benesi–Hildebrand method II) / Kb, SK-I (Sakthi–Krause method I) / Kb, SK-II (Sakthi–Krause method II) / Kb, WS-I (Wolfe–Shimmer method I) / Kb, WS-II (Wolfe–Shimmer method II): pH 7.4, 25 °C
Protocol: The DNA-binding experiment was conducted with an electronic absorption spectrophotometer by raising the DNA concentration from zero to 50 μM to the given concentration of all samples (50 μM) in Tris-HCl buffer (5 mM Tris-HCl/50 mM NaCl) with a pH of 7.4 at 25 °C.[13,23–26]
Most medications involve intercalation and groove binding via GC (guanine/cytosine)-rich and AT (adenine/thymine)-rich domains, respectively. The interactions were determined experimentally by electronic absorption spectrum titration. Moreover, intercalating binding is indicated by bathochromic and hypochromic shifts in the absorption spectra, whereas groove binding of the complexes with DNA is indicated by hyperchromic shifts in the titration curve.[61] Generally, four kinds of non-covalent engagements that can be absolutely critical in the interaction of substances with DNA are most frequently illustrated in the literature: (i) involves a negatively charged phosphate fragment as a result of electrostatic interaction; (ii) influences weak van der Waals force attraction/H-bonding; (iii) interaction of a functional moiety with the grooves (major/minor) of the double-stranded DNA as a result of a molecule sticking due to general attraction, or as a result of water or H-bonding expulsion, etc.; (iv) the stacked base pairs of natural DNA are intercalated by hydrophobic forces. Nevertheless, substances are engaged in the reaction because of […] preferred N-7 position and adenine's N-3 location in DNA. The DNA base pairing may also be prevented due to miscoding. All complexes (1–3), including free ligand (HL), were measured both when DNA was present and when it was absent using ultraviolet–visible spectrophotometric absorption titrations in buffer solution with a pH of 7.4 at 25 °C (Fig. 3). In this case, all substances were exposed to two prominent electronic absorption bands of about 260 nm and 335–343 nm, consequent to the π–π* transitions of the phenyl chromophore and MLCT, respectively. While the amount of DNA in each compound rises, the interaction of the chemical substance with DNA base pairs generates noticeable alterations in the strength and wavelength of the intra-ligand charge transfer bands. […] Using Wolfe–Shimmer eqn (1) and (2), Benesi–Hildebrand eqn (3) and (4) and Sakthi–Krause eqn (5) and (6), the observed overall Kb values for all samples were in the following sequence: (2) > (3) > (1) > (HL). […] It is concluded that the co-planarity of the morpholine-linked ligand and complexation of the 2,2′-bipyridine aromatic system with the metal centre promote the ability of the complex to infiltrate DNA base pairs smoothly. Large aromatic systems may also assist the complex to deeply penetrate the core of the phosphate backbone, and those substances may permit the complex to freely penetrate deep into the DNA base pairs. […] The Wolfe–Shimmer eqn (1) and (2),[62] Benesi–Hildebrand eqn (3) and (4),[63] and Sakthi–Krause eqn (5) and (6) were applied to evaluate the Kb results for all samples, which were obtained by modification of the Lineweaver–Burk and Stern–Volmer equations (Table 1).
The Kb values were measured using the Wolfe–Shimmer eqn (1) and (2) from the linear regression plots of [DNA]/(εa − εf) vs. [DNA] M^−1 for method I and (εb − εf)/(εa − εf) vs. 1/[DNA] M^−1 for method II, respectively (Fig. S15 ^†). The Benesi–Hildebrand binding constant (Kb) values were measured using eqn (3) and (4) from the linear regression plots of [1/(Ax − A0)] vs. {1/[DNA]} M^−1 for method I and [(Amax − A0)/(Ax − A0)] vs. {1/[DNA]} M^−1 for method II, respectively (Fig. S16 ^†). The Kb values were estimated using Sakthi–Krause eqn (5) and (6) from the linear regression plots of [A/(A0 − A)] vs. {1/[DNA]} M^−1 for method I (Fig. S17 ^†) and {1/[DNA]} vs. log[A/(A0 − A)] M^−1 for method II (Fig. S18 ^†). In addition, A0 and A represent the absorbance intensity values in the absence and presence of [DNA], respectively. […]

CT-DNA [2] = assay: DNA binding by viscometric (hydrodynamic) technique
Protocol: The hydrodynamic properties were measured using an Ostwald viscometer with the help of a thermostat (25 ± 0.1 °C). The specific viscosity of DNA was also measured in the presence and absence of the test samples.[13,30]
Generally, when the major/minor groove binding, electrostatic, partial, and non-classical interaction modes are involved between chemical substances and DNA base pairs, the final DNA relative viscosity remains unchanged or undergoes a very negligible change due to reducing the contour length of DNA. When the intercalation binding modes are involved between a chemical substance and DNA base pairs via π–π stacking interactions and hydrophobic forces, an increase in relative viscosity is noted due to a rise in the contour length of DNA. Moreover, for the purpose of observing alterations in the CT-DNA helical structure, the viscosity findings for CT-DNA, various concentrations of chemical substances present, and EtBr were recorded. It was also noted that the absolute viscosity rose consistently along with the incremental concentration of each substance at the fixed DNA concentration. As a result of the strong binding mode of intercalation, the contour length of the double-helix DNA rises.[72] The obtained results are also compared with those of the classical intercalator (EB). The affinity interaction and their slope values were observed from the relative specific viscosity (η/η0)^1/3 plotted as a straight line contrasting [compound]/[DNA] and absolute specific viscosity of DNA in the presence or absence of chemical substances was evaluated using eqn (11) (Table 3). In the experiment, it was clearly noted that the slope values for all samples increased due to the rising binding affinity. The evaluated slopes were in the following sequence: (EB) 1.215 > (2) 0.860 > (3) 0.801 > (1) 0.662 > (HL) 0.490 (Fig. S21 ^† and Table 3). […] Due to the existence of 2,2′-bipyridine and the morpholine-fused aromatic planar systems, compounds can interact with DNA robustly via intercalation. The outcomes agreed with the observed outcomes of electronic absorption spectral characteristics.
11 [drawing 21] where η and η0 represent the specific viscosity of DNA in the presence of the complex and the specific viscosity of DNA alone, t0, tDNA and tcomplex represent the average flow time of the Tris–HCl buffer solution, the average flow time of the DNA alone solution, and the average flow time of DNA interacted with the samples, respectively. Error limit ± 2.5% (P < 0.025). […]
2.2.4. Assessment of DNA affinity by hydrodynamic technique
Hydrodynamic properties were performed using an Ostwald viscometer with the help of a thermostat (25 ± 0.1 °C). The experiment was performed of all samples, including ethidium bromide at various concentrations (20, 40, 60, 80, 100 µM) and each test compound was mixed with the deoxyribonucleic acid solution (100 µM) in the Ostwald viscometer. With a help of digital stopwatch, average flow time was gauged three times for each addition, and the specific viscosity of deoxyribonucleic acid was also measured in the presence and absence of test samples. […]
Also, the emission spectral titration for all compounds was also carried out at a fixed concentration (25 μM) of BSA with an incremental concentration of substances (0–25 µM)

SMILES	% H (hypochromism) (CT-DNA [1])	Kb, BH-I (Benesi–Hildebrand method I) (CT-DNA [1])	Kb, BH-II (Benesi–Hildebrand method II) (CT-DNA [1])	Kb, SK-I (Sakthi–Krause method I) (CT-DNA [1])	Kb, SK-II (Sakthi–Krause method II) (CT-DNA [1])	Kb, WS-I (Wolfe–Shimmer method I) (CT-DNA [1])	Kb, WS-II (Wolfe–Shimmer method II) (CT-DNA [1])	Slope of (η/η0)^1/3 vs [compound]/[DNA] (CT-DNA [2])	Relative specific viscosity (η/η0)^1/3 (CT-DNA [2]; [complex]/[DNA] = 0.2)	Relative specific viscosity (η/η0)^1/3 (CT-DNA [2]; [complex]/[DNA] = 0.4)	Relative specific viscosity (η/η0)^1/3 (CT-DNA [2]; [complex]/[DNA] = 0.6)	Relative specific viscosity (η/η0)^1/3 (CT-DNA [2]; [complex]/[DNA] = 0.8)	Relative specific viscosity (η/η0)^1/3 (CT-DNA [2]; [complex]/[DNA] = 1.0)
[Mn+2].[O-]c1ccccc1N=Cc1ccc(N2CCOCC2)cc1.[O-]c1ccccc1N=Cc1ccc(N2CCOCC2)cc1.c1ccc(-c2ccccn2)nc1 [(1)]	40.61%	9942 M⁻¹	21067 M⁻¹	11049 M⁻¹	20389 M⁻¹	18195 M⁻¹	20826 M⁻¹	0.662	0.66	0.78	0.88	1.02	1.12
[Co+2].[O-]c1ccccc1N=Cc1ccc(N2CCOCC2)cc1.[O-]c1ccccc1N=Cc1ccc(N2CCOCC2)cc1.c1ccc(-c2ccccn2)nc1 [(2)]	36.16%	10468 M⁻¹	21524 M⁻¹	14965 M⁻¹	22526 M⁻¹	18806 M⁻¹	21379 M⁻¹	0.860	0.77	0.88	1.05	1.18	1.48
[Ni+2].[O-]c1ccccc1N=Cc1ccc(N2CCOCC2)cc1.[O-]c1ccccc1N=Cc1ccc(N2CCOCC2)cc1.c1ccc(-c2ccccn2)nc1 [(3)]	43.46%	18212 M⁻¹	20938 M⁻¹	13001 M⁻¹	20417 M⁻¹	18207 M⁻¹	21275 M⁻¹	0.801	0.71	0.86	0.92	1.11	1.31
Oc1ccccc1N=Cc1ccc(N2CCOCC2)cc1 [(HL), 2-(4-morpholinobenzylideneamino)phenol]	37.13%	6000 M⁻¹	19515 M⁻¹	8775 M⁻¹	17216 M⁻¹	15169 M⁻¹	15480 M⁻¹	0.490	0.61	0.67	0.75	0.85	1.01
